According to publication PMC9989471, “The Key Roles of Mycobacterium tuberculosis FadD23 C-terminal Domain in Catalytic Mechanisms” (Frontiers in Microbiology, 2023):
pKd: −log10 of the molar value.

Tests used:
FadD23 [1] = target: T1, FadD23 (Mycobacterium tuberculosis, UniProt P9WQ47); assay: crystal structure ([…] Å), formed from ATP and palmitic acid; assay type: binding
T1 construct: full-length

FadD23 [2] = target: T1, FadD23; assay: crystal structure ([…] Å), with palmitic acid bound; assay type: binding
FadD23 [3] = target: T1, FadD23; assay: SPR; assay type: binding
FadD23 [4] = target: T1, FadD23; assay: SPR; also crystal structure with AMP-PNP, MS, DSF and hydroxamate-MesG assay; assay type: binding
CCCCCCCCCCCC(=O)O = assay: purified protein; conditions: ATP, Mg2+

T1 sequence (P9WQ47 whole entry): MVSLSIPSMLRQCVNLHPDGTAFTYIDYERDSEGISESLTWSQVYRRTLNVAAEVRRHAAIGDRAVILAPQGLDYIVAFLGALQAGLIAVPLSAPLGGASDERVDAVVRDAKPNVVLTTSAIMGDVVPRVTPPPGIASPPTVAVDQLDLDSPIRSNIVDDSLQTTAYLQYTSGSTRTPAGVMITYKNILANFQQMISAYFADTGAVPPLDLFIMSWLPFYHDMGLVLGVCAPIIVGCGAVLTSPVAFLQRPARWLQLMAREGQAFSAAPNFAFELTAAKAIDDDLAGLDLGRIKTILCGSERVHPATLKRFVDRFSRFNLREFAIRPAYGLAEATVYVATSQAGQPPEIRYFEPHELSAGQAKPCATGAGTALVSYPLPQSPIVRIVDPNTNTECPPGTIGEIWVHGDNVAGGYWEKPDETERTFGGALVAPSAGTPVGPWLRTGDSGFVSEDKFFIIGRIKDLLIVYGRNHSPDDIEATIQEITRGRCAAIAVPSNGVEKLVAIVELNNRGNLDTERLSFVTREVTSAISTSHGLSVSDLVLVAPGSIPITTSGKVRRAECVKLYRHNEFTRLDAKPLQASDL

How did the “crystal structure (2.68 Å), formed from ATP and palmitic acid” value (FadD23 [1]) turn out when `CCCCCCCCCCCCCCCC(=O)OP(=O)(O)OC[C@H]1O[C@@H](n2cnc3c(N)ncnc32)[C@H](O)[C@@H]1O` [AMP-C16, hexadecanoyl adenylate] was run?
The value was “FadD23 catalyzed the hydrolysis of ATP and connected AMP with palmitic acid to generate a molecule of AMP-C16”.

How did the “crystal structure (2.25 Å), with palmitic acid bound” value (FadD23 [2]) turn out when `Nc1ncnc2c1ncn2[C@@H]1O[C@H](CO[P@](=O)(O)O[P@](=O)(O)NP(=O)(O)O)[C@@H](O)[C@H]1O` [AMP-PNP] was run?
Its value is “In the AMP-PNP-FadD23 complex, the O27 of AMP-PNP interacted with NE of Arg460 through hydrogen bond”.

`Nc1ncnc2c1ncn2[C@@H]1O[C@H](COP(=O)(O)OP(=O)(O)OP(=O)(O)O)[C@@H](O)[C@H]1O` [ATP] was tested. Which pKd (FadD23 [3]) did it give?
Its pKd is roughly 6.00.

With `CCCCCCCCCCCCCCCC(=O)O` [palmitic acid] as the molecule, how does the pKd (FadD23 [4]) read?
The pKd was 4.46.

For “FadD23 (Mycobacterium tuberculosis H37Rv)”, which Km (CCCCCCCCCCCC(=O)O) is on record?
The Km was 33.56 ± 5.40 µM.

What about the Vmax (CCCCCCCCCCCC(=O)O) of the same molecule?
Its Vmax is 0.00108 µmol/min.

What about the kcat (CCCCCCCCCCCC(=O)O) of the same molecule?
The kcat was 0.00239 s⁻¹.

And the kcat/Km (CCCCCCCCCCCC(=O)O)?
Its kcat/Km is 71.2 M⁻¹ s⁻¹.
